Measured values as given in US20070203212A1, “METHOD OF TREATING OSTEOARTHRITIS” (WARNER-LAMBERT COMPANY, priority 2002, published 2007).

What was measured:
[1] = system: monosodium iodoacetate (MIA)-induced osteoarthritis; test: MIA rat model, acute single oral dose: change in hind paw weight distribution (joint pain); assay type: in vivo; settings: for shift in weight bearing potential (joint pain) versus pre-dose: 2, 4 and 6 hours post administration
Experimental: It should be appreciated that in Biological Methods 1, 2, 4, and 5 below, hind paw weight bearing differentials between the paw of the limb having the control joint (in animals administered test compound vehicle only) and the paw of the limb having the contralateral test joint (in control or inducement animals administered test compound vehicle only and in treatment animals administered test compound dissolved in test compound vehicle) were determined using an incapacitance tester, model 2KG (Linton Instrumentation, Norfolk, United Kingdom). The incapacitance tester has a chamber on top with an outwardly sloping front wall that supports a rat's front limbs, and two weight sensing pads, one for each hind paw, that facilitates this determination. The hind paw weight bearing differentials were expressed in grams and calculated as follows: (the average weight in grams placed on the control limb minus the average weight in grams placed on the contralateral test limb for each of the inducement or treatment animals) minus (the average weight in grams placed on the control limb minus the average weight in grams placed on the contralateral test limb for each of the control animals). All results were statistically analyzed by comparing the average results for an induction or treatment group with the average result for its control group at the same time point using analysis of covariance (“ANCOVA”) followed by the Hoehberg's procedure and those with statistical significance had p<0.05 unless otherwise noted.
The rats were anesthetized with 5% volume/volume (“v/v”) isoflurane gas and maintained with 2% v/v isoflurane gas. The anesthetized rats were given a single intra-articular injection of 1 mg of MIA through the infrapatellar ligament of the right knee. MIA was dissolved in physiologic saline and administered in a volume of 50 μL. The contralateral control knee was injected with 50 μL of physiologic saline. Administration of isoflurane gas was discontinued, and the rats became fully conscious about 5 minutes later.
Shifts in hind paw weight distribution from the right to the left hind paws supporting the right (arthritic) and the left (contralateral control) hind leg knee joints were utilized as an index of joint pain and as a measure of compound efficacy. An incapacitance tester (Model 2KG, Linton Instrumentation, UK) was employed for determination of hind paw weight distribution. Each data point is the mean of three readings of 5 seconds duration.
CI-1027 (i.e., 6-(5-carboxy-5-methyl-hexyloxy)-2,2-dimethyl-hexanoic acid, calcium salt) was dissolved in hydroxypropylmethylcellulose (“HPMC”) vehicle (0.05% HPMC+0.2% Tween 80; compound amount was adjusted based on the percent of free acid, i.e., 6-(5-carboxy-5-methyl-hexyloxy)-2,2-dimethyl-hexanoic acid).
[…] Rats were then given a single, 10, 30, or 100 mg/kg, dose of CI-1027 via oral gavage (PO). Changes in hind paw weight distribution were determined 2, 4 and 6 hours post-compound administration.
6-(5-carboxy-5-methyl-hexyloxy)-2,2-dimethyl-hexanoic acid, calcium salt (“CI-1027”) and rofecoxib was tested in the rat MIA model in an acute dosing paradigm as described previously. MIA was injected into the right knee and saline into the left knee of all rats on Day 0. […] Two hours later, the rats were reassessed. The results for inhibition of pain, expressed as a percentage±standard error of the mean, are shown below in Table 5. The percent inhibition of pain was determined as described above in Biological Method 1. […] N=8 rats per group.

[2] = system: experimental osteoarthritis (anterior cruciate ligament section); test: Experimental osteoarthritis in rabbit (EOA in Rabbit); assay type: in vivo; settings: 30 or 10 mg/kg/dose three times per day, 8 weeks; 'if these EOA studies were performed'
Experimental: Normal rabbits are anaesthetized and anteromedial incisions of the right knees performed. The anterior cruciate ligaments are visualized and sectioned. The wounds are closed and the animals are housed in individual cages, exercised, and fed ad libitum. Rabbits are given either vehicle (water) or 6-(5-carboxy-5-methyl-hexyloxy)-2,2-dimethyl-hexanoic acid, calcium salt, or a pharmaceutically acceptable salt thereof, (10 rabbits per group). Each group is dosed three times per day with the 6-(5-carboxy-5-methyl-hexyloxy)-2,2-dimethyl-hexanoic acid, calcium salt, or a pharmaceutically acceptable salt thereof, group receiving 30-mg/kg/dose or 10-mg/kg/dose. The rabbits are euthanized 8 weeks after surgery and the proximal end of the tibia and the distal end of the femur are removed from each animal.
The cartilage changes on the femoral condyles and tibial plateaus are graded separately under a dissecting microscope (Stereozoom, Bausch & Lomb, Rochester, N.Y.). […] The surface area changes are measured and expressed in mm^2. […]
Representative specimens of synovial membrane from the medial and lateral knee compartments are dissected from underlying tissues. […] The average score is calculated and considered as a unit for the whole knee. […]
Mean values and SEM are calculated and statistical analysis is done using the Mann-Whitney U-test.

[3] = system: prostaglandin-F2a (PGF2a) expression; test: PGF2a expression from calcium ionophore-stimulated rat basophilic leukemia cells; assay type: cell-based
[4] = system: monoclonal antibody-induced arthritis; test: Monoclonal antibody-induced arthritis (MAIA) mouse model, footpad and ankle swelling; assay type: in vivo; settings: p<0.05 (FIG. 8)
Experimental: In a typical MAIA experiment, groups of four mice were injected intraperitoneally (“i.p.”) with 0.4 mL (BALB/c and DBA/1 strains) or 0.8 mL (C57BL/6, 129X1/SvJ, C3H/HeJ, and C3H/FeJ strains) with a 10 mg/mL solution of Arthrogen-CIA Monoclonal Antibody Blend (Chemicon International, Inc.). Two days later, the mice were injected i.p. with 0.2 mL of a 0.25 mg/mL solution of LPS (lipopolysaccharide form Escherichia coli (“E. coli”) strain 0111B4) in PBS. Footpad and ankle size was assessed using a Dyer Digital Caliper (#655-030-4916) on the day of mAb injection, and every two days following LPS injection.

## CC(C)(CCCCOCCCCC(C)(C)C(=O)[O-])C(=O)[O-].[Ca+2] [CI-1027, 6-(5-carboxy-5-methyl-hexyloxy)-2,2-dimethyl-hexanoic acid, calcium salt]
[1]; 10 mg/kg PO single dose on Day 14
  shift in weight bearing potential (joint pain) versus pre-dose: did not significantly alter
[1]; 30 mg/kg PO single dose on Day 14
  shift in weight bearing potential (joint pain) versus pre-dose: only the change at the 4-hour post dose time point was statistically significant
[1]; 100 mg/kg PO single dose on Day 14
  shift in weight bearing potential (joint pain) versus pre-dose: statistically significant
[1]; CI-1027 10 mg/kg PO alone, Day 14
  Mean pain alleviation at 2 hours post administration (% ± SEM): 20 ± 9%
[1]; single oral dose 30 mg/kg on Day 7, 4 hours post dose
  Inhibition of Pain (% versus control), MIA (acute): 67 ± 8%
[2]
  lesion size on tibial plateaus / cartilage damage: reduce the size of the lesion on the tibial plateaus
[3]
  inhibition of PGF2a expression: does not inhibit
[4]; 100 mg/kg oral daily, Day 7
  change in mouse ankle joint and paw swelling: inhibits a change in mouse ankle joint and paw swelling
[4]; 200 mg/kg oral daily, Days 4, 7 and 9
  change in mouse ankle joint and paw swelling: inhibits a change in mouse ankle joint and paw swelling
